Some results are limits rather than exact numbers.

The source of these data is patent publication US20180311276A1, “Method and Apparatus for Treating Oral Disease in Animals” (priority 2015, published 2018).

One series deals with thyroid hormone levels. In words: thyroid hormone levels in the two shelter clinical trials. Conditions: iodine added to dog drinking water. The format is in vivo, dogs. How it is done:
(§1) Plaque formation leads to gingivitis and periodontal disease and often progresses to systemic disease and death in dogs. Clinical trial 1 was conducted at a humane shelter with all dogs enclosed in kennels using a manually added drug vs. placebo. Subsequently, Clinical Trial 2 was conducted at a humane shelter with all dogs enclosed in kennels but in this case the iodine vs placebo was administered via an automated system.
Furthermore, neither dog weight or age affected the plaque prevention effect. Finally, the iodine added to dog drinking water had no effect on dog thyroid hormone levels.

A further series concerns Neisseria spp. As to the kind of experiment: use dilution experiments (MicroChem Laboratories). The format is cell-based. The conditions noted are these: for reduction in microbial concentration / kill: 1 minute time point. The text has this: (§2) The inventor evaluated a variety elemental iodine concentrations e.g., 0.5, 1.0, 2.0, 3, 5, 10, 15 and 20 micrograms/mL and discovered that dogs preferred drinking water with elemental iodine below 2 micrograms/mL. We evaluated the ability of elemental iodine to kill oral bacteria at a concentration of 2 micrograms/mL responsible for plaque formation and discovered that elemental iodine was effective at this dose i.e., microbial kill >3 logs/min. We evaluated lower concentrations of elemental iodine e.g., 0.05, 0.1 and 0.5 micrograms/mL. […] We hypothesized that molecular iodine concentrations below 0.5 micrograms/mL may not be not effective in killing oral bacteria responsible for plaque formation. We confirmed this assumption by performing microbial analysis. The inventor sent samples of two part preparations e.g., 1 vial with water and a second vial with iodine in 100% ethyl alcohol. These were combined before analysis so that the final concentrations were 0.05, 0.1, 0.5, 1.0, 2.0 and 5.0 micrograms/mL. The test organism was a known plaque-producing bacterium i.e., Neisseria spp. A contract research laboratory in Texas i.e., MicroChem Laboratories performed the use dilution experiments.

Series [1] in a line: saturation of absolute alcohol with molecular iodine. The format is physicochemical. The text has this: One embodiment of the present invention features a carrier liquid ethanol. The ethanol is preferably devoid of water, as in absolute alcohol. As used herein, the term “absolute alcohol” refers to alcohol with no or limited water content as such term is used in a commercial context. One formulation molecular iodine having a concentration in absolute alcohol in the range of 0.1 to 1.0 Gm molecular iodine in 13 milliliters of absolute alcohol. Molecular iodine saturates absolute alcohol at a concentration of 1 Gm per 13 milliliters of absolute alcohol. A further embodiment of the present formulation features a molecular sieve particle of between 2 and 4 A which captures and adsorbs water.

Another series deals with plaque. In words: double-blind, placebo controlled clinical trial in 20 adult dogs, whole mouth plaque scores (Example 1). Type of series: in vivo. The conditions noted are these: 28 days. How it is done: First, a double-blind, placebo controlled clinical trial was conducted using 20 adult dogs of mixed breed and weights. The dogs were randomly divided into two groups. […] Group 1 dogs were further divided into two groups of five dogs. Five received molecular iodine [I2] dissolved into 1000 mL water to a final concentration of 0.5 microgram/mL. The second group of five dogs received molecular iodine [I2] dissolved into 1000 mL water to a final concentration of 1.0 microgram/mL. The placebo group of 10 dogs received no iodine. […]
Each dog was weighed, blood drawn for determination of thyroid level and a qualitative assessment was made for halitosis using a 0, 1, 2, 3, 4 and 5 scale with 0 indicating no discernible “doggie breath produced by hydrogen sulfide H2S” and 5 being very noxious, strong odor. […] At the end of the study i.e., 28 days each dog was sedated, breath was evaluated and teeth were stained with disclosing solution that is proven to stain plaque red. The attending veterinarian who measured the initial marginal tooth-gum line measured all the proscribed teeth using the published technique (Scherl D S, Coffman L, et al. Validation of a New Dental Plaque Quantification Method in Dogs. J Vet Dent 24(1); 14-20, 2007). All values from all 20 dogs were recorded and whole mouth scores were calculated.

In series [2] the test system is oral bacteria responsible for plaque formation. As to the kind of experiment: kill of oral bacteria responsible for plaque formation. The conditions noted are these: 2 micrograms/mL. The format is cell-based.
From the text: as §2

Series [3] relates to plaque formation on teeth. In words: two double-blind, placebo-controlled clinical trials at a humane shelter, plaque prevention. Type of series: in vivo, dogs. How it is done:
as §1
We conducted two double-blind, placebo-controlled clinical trials using both 0.5 and 1.0 micrograms elemental iodine in water.

For series [4], the system named is halitosis (volatile sulfur compounds, hydrogen sulfide). As to the kind of experiment: halitosis secondary end point: Halimeter VSC readings and qualitative odor 0-5 scale (Example 1). Type of series: in vivo, dogs. The text has this:
Each dog was weighed, blood drawn for determination of thyroid level and a qualitative assessment was made for halitosis using a 0, 1, 2, 3, 4 and 5 scale with 0 indicating no discernible “doggie breath produced by hydrogen sulfide H2S” and 5 being very noxious, strong odor. Dogs were anesthetized, marginal tooth-gum line measurements were taken for proscribed teeth (required for veterinary oral health counsel certification of efficacy at reducing plaque in dogs found at www.VOHC.com) and dog teeth were cleaned to remove all plaque and tarter. All dogs were given either drug or placebo each morning for 28 days. Journal entries were kept for each dog to monitor for compliance, observations regarding dog drinking behavior and comments regarding dog breath/odor. Once each dog drank all the water i.e., 1000 mL the water bowl was filled with fresh water. The following day all the remaining water was discarded and the clinical trial sample was added to the water bowl. At the end of the study i.e., 28 days each dog was sedated, breath was evaluated and teeth were stained with disclosing solution that is proven to stain plaque red. The attending veterinarian who measured the initial marginal tooth-gum line measured all the proscribed teeth using the published technique (Scherl D S, Coffman L, et al. Validation of a New Dental Plaque Quantification Method in Dogs. J Vet Dent 24(1); 14-20, 2007). All values from all 20 dogs were recorded and whole mouth scores were calculated.
The halitosis secondary end point was more complicated since the attempt was made to use an Interscan Corporation Halimeter® that quantitatively measures volatile sulfur compounds (VSC) in the oral cavity. The Halimeter was designed for use by dentists and humans. One of the requirements to obtain reliable readings is for the conscious human subject to blow into a straw connected into the Halimeter. The problem encountered with dogs while under anesthesia is obtaining a valid reading since they are unable to “blow” into the straw. Early dog readings were erratic and turned out to be unreliable. […]

The test system of the next series is thyroid level (T4). In words: thyroid level (T4) in the Example 1 clinical trial. Type of series: in vivo, dogs. Conditions: 0.5 or 1.0 microgram/mL in drinking water, 28 days. The source says:
Each dog was weighed, blood drawn for determination of thyroid level and a qualitative assessment was made for halitosis using a 0, 1, 2, 3, 4 and 5 scale with 0 indicating no discernible “doggie breath produced by hydrogen sulfide H2S” and 5 being very noxious, strong odor. Dogs were anesthetized, marginal tooth-gum line measurements were taken for proscribed teeth (required for veterinary oral health counsel certification of efficacy at reducing plaque in dogs found at www.VOHC.com) and dog teeth were cleaned to remove all plaque and tarter. All dogs were given either drug or placebo each morning for 28 days. Journal entries were kept for each dog to monitor for compliance, observations regarding dog drinking behavior and comments regarding dog breath/odor. Once each dog drank all the water i.e., 1000 mL the water bowl was filled with fresh water. […] At the end of the study i.e., 28 days each dog was sedated, breath was evaluated and teeth were stained with disclosing solution that is proven to stain plaque red. The attending veterinarian who measured the initial marginal tooth-gum line measured all the proscribed teeth using the published technique (Scherl D S, Coffman L, et al. Validation of a New Dental Plaque Quantification Method in Dogs. J Vet Dent 24(1); 14-20, 2007). All values from all 20 dogs were recorded and whole mouth scores were calculated.

For the compound `II` [molecular iodine], in the series on thyroid hormone levels, the “effect on dog thyroid hormone levels” value is given as “no effect”. The antimicrobial efficacy result with Neisseria spp. (0.05 micrograms/mL) and in the series with Neisseria spp. (0.1 micrograms/mL) was “no antimicrobial efficacy” each time. Moreover, the “reduction in microbial concentration” value in the series on Neisseria spp. (0.5 microgram/mL) is on record as 100 fold; in the series with Neisseria spp. (1.0 microgram/mL), 1000 fold. Also, the kill in the series on Neisseria spp. (2.0 microgram/mL) and in the series on Neisseria spp. (5.0 microgram/mL) was above 4 logs throughout. Further, the killing oral bacteria entry with Neisseria spp. (concentrations below 0.5 micrograms/mL, independent use dilution experiments) is recorded as “not effective”. Besides, the “concentration at which molecular iodine saturates absolute alcohol” value in series [1] was 1 Gm per 13 milliliters of absolute alcohol. The “whole mouth plaque scores from Day 0 to Day 28, Treated dogs compared to Placebo dogs” value in the series with plaque (0.5 or 1.0 microgram/mL in 1000 mL drinking water, once daily) is on record as “statistically significant reduction”. The “mean plaque score, dogs receiving 0.5 microgram/mL versus 1.0 micrograms/mL” value in the series on plaque (drinking water) is “no difference”. Moreover, the microbial kill in series [2] is listed as above 3 logs/min. In addition, in series [3] (both 0.5 and 1.0 micrograms/mL water), the plaque prevention entry was “proven effective”. Also, in series [3] (dog drinking water, all dogs regardless of size or age), the “prevention of plaque formation, 0.5 versus 1.0 micrograms/mL” value is on record as “statistically significantly identical”. Moreover, the “Halimeter VSC levels at the conclusion of the clinical trial” value in series [4] (0-5 scale, 3 dogs of the iodine group, initial levels 4-5, not statistically significant) is listed as 0-1. Also, the “qualitative odor, final” value in series [4] (0-5 scale, 5 iodine-treated dogs, initial smell 3-5) is 0-1. The “number of iodine-treated dogs with reduced oral smell or doggie breath or VSC/H2S” value in series [4] (of 10 iodine-treated dogs, 28 days) turned out to be 8. Also, the “T4 levels after treatment” value in the series on thyroid level (T4) was “remained within normal range”.
